Patent US8815936B2 (Nad Life Pty Ltd, priority 2008, dated 2014)

What was measured:
[1] = tested on: primary human foetal astrocytes; assay: Intracellular NAD+ levels in cultured human foetal astrocytes (NAD(H) microcycling assay); assay type: cell-based; details: for abrogation of resveratrol-induced increase of intracellular NAD+ by de novo pathway inhibitor: inhibitor 1 mM + resveratrol 100 μM; for reversal of NAD+ depletion compared to 1-MT treatment alone: supplementation together with 1-MT
[2] = tested on: primary human foetal astrocytes; assay: H2O2-mediated intracellular NAD+ depletion in human foetal astrocytes; assay type: cell-based; details: for intracellular NAD+ after oxidative (H2O2) insult: 24 hour pre-treatment (Melatonin 5 μM, Clioquinol 10 μM, resveratrol 100 μM), then 100 μM H2O2 15 min
[3] = tested on: Human neuroblastoma cells (SK-N-SH); assay: Intracellular NAD+ in human neuroblastoma cells treated with H2O2, iron and ascorbic acid; assay type: cell-based; details: for depletion of intracellular NAD+ levels: pre-treatment with 2, 20 and 200 μM, 100 μM H2O2
[4] = tested on: human primary Fibroblasts; assay: Residual DNA damage (dsDNA breaks) after UVB, Fibroblasts; assay type: cell-based; details: for amount of dsDNA breaks: EC100 or EC100 equivalent combinations; for EC100: mono therapy, DNA repair
[5] = tested on: human primary Keratinocytes; assay: Residual DNA damage (dsDNA breaks) after UVB, Keratinocytes; assay type: cell-based; details: for amount of dsDNA breaks: EC100 or EC100 equivalent combinations; for EC100: mono therapy, DNA repair
[6] = tested on: PARP-1; details: exposure to 10-100 μM H2O2 for 20 min
[7] = tested on: primary human foetal astrocytes; details: exposure to 10-100 μM H2O2 for 20 min
[8] = tested on: human primary Keratinocytes; assay: Intracellular NAD 24 hr after UVB exposure in human skin cells; assay type: cell-based; details: single therapy 24 hrs after 15 min UVB; NAD levels / LDH activity; N=3
Procedure: Human skin cells (keratinocytes) were grown at a density of 5×10^6 in PERMANOX® chamber-slides (NUNC) for 2 weeks. This method is commonly used in the industry and is well known to those skilled in the art. Accordingly, there is no need to detail the method utilised in this specification.
Cells were either left unexposed or exposed to 15 min UVB (˜200 mJcm^−2).
Cells were left to incubate for 24 hrs before analysis of intracellular NAD (FIG. 19a-d to FIG. 21) and extracellular LDH (FIG. 21). FIGS. 19a-d show the intracellular NAD concentrations+/−UV exposure, +/−supplementation. FIGS. 19e-h show supernatant LDH activity+/−UVE exposure, +/−supplementation.

[9] = tested on: nicotinamide mononucleotide adenylyl transferase (NMNAT); assay: NMNAT activity in whole cell homogenates of human brain astrocytes; assay type: biochemical
[10] = target: human recombinant NMNAT (hr-NMNAT1) (Homo sapiens, UniProt Q9HAN9); details: resveratrol 50, 100 and 200 μM
Chain of human recombinant NMNAT (hr-NMNAT1) (Q9HAN9 whole entry): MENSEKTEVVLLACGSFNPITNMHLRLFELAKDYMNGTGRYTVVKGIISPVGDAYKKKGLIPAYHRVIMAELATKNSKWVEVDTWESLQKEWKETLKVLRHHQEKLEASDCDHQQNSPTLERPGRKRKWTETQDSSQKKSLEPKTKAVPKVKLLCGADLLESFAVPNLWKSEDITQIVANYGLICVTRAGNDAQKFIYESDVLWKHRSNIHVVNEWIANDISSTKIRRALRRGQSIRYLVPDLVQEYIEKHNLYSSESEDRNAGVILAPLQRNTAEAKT

Cn1cc(C[C@H](N)C(=O)O)c2ccccc21 [1-MT, 1-methyl tryptophan]
intracellular NAD+ levels ([1]; 1-MT 1 mM, 24 h): significant decrease | abrogation of resveratrol-induced increase of intracellular NAD+ by de novo pathway inhibitor ([1]; 24 hour): Neither inhibitor was able to abrogate the resveratrol effect

COc1ccc2[nH]cc(CCNC(C)=O)c2c1 [Melatonin]
intracellular NAD+ after oxidative (H2O2) insult [2]: significantly reduced NAD^+ depletion | depletion of intracellular NAD+ levels [3]: inhibited | reduction in damaged DNA ([4]; 24 hr after UVB exposure): ~40% | amount of dsDNA breaks ([4]; 24 hr after UVB exposure): significantly reduced | EC100 [4]: 100 µM | reduction in damaged DNA ([5]; 24 hr after UVB exposure): ~30% | amount of dsDNA breaks ([5]; 24 hr after UVB exposure): significantly reduced | EC100 [5]: 100 µM

O=C(O)c1cccnc1 [nicotinic acid, Nicotinic acid]
reversal of NAD+ depletion compared to 1-MT treatment alone ([1]; 24 h): partially reversed

Vitamin E
depletion of intracellular NAD+ levels [3]: inhibited

NC(=O)c1ccccn1 [Picolinamide]
amount of dsDNA breaks ([4]; 24 hr after UVB exposure): significantly reduced | EC100 [4]: 100 µM | amount of dsDNA breaks ([5]; 24 hr after UVB exposure): significantly reduced | EC100 [5]: 100 µM

OO [H2O2, hydrogen peroxide]
Intracellular NAD+ ([2]; exposure to 10-100 μM H2O2 for 20 min): significantly decreased | PARP-1 activity [6]: significantly increased | LDH activity (a measure of cell death) [7]: significantly increased

O=C(O)c1ccccc1C(=O)O [PA]
abrogation of resveratrol-induced increase of intracellular NAD+ by de novo pathway inhibitor ([1]; 24 hour): Neither inhibitor was able to abrogate the resveratrol effect

Oc1c(I)cc(Cl)c2cccnc12 [Clioquinol]
intracellular NAD+ after oxidative (H2O2) insult [2]: significantly reduced NAD^+ depletion | .OH-induced NAD+ depletion ([3]; Clioquinol 1 μM-100 μM, dose dependant, 100 μM H2O2, 10 μM iron, 10 μM ascorbic acid): effectively reduced | Minimum effective concentrations (MEC) [8]: 0.1 µM | amount of dsDNA breaks ([4]; 24 hr after UVB exposure): significantly reduced | EC100 [4]: 0.1 µM | amount of dsDNA breaks ([5]; 24 hr after UVB exposure): significantly reduced | EC100 [5]: 0.1 µM

O=c1c(O)c(-c2ccc(O)c(O)c2)oc2cc(O)cc(O)c12 [Quercetin]
NAD+ levels after H2O2 exposure ([2]; quercetin (50 μM) overnight, then 10-100 μM H2O2 for 20 min): significantly preserved

O=C(OC[C@H]1O[C@@H](OC(=O)c2cc(O)c(O)c(OC(=O)c3cc(O)c(O)c(O)c3)c2)[C@H](OC(=O)c2cc(O)c(O)c(OC(=O)c3cc(O)c(O)c(O)c3)c2)[C@@H](OC(=O)c2cc(O)c(O)c(OC(=O)c3cc(O)c(O)c(O)c3)c2)[C@@H]1OC(=O)c1cc(O)c(O)c(OC(=O)c2cc(O)c(O)c(O)c2)c1)c1cc(O)c(O)c(OC(=O)c2cc(O)c(O)c(O)c2)c1 [tannic acid]
NAD+ levels, tannic acid alone ([1]; 100 μM, 24 hour incubation): did not significantly reduce | effect of resveratrol on intracellular NAD+ levels in presence of tannic acid ([1]; tannic acid 100 μM + resveratrol 100 μM, 24 hours): completely abrogated

N[C@@H](Cc1c[nH]c2ccccc12)C(=O)O [L-tryptophan]
reversal of NAD+ depletion compared to 1-MT treatment alone ([1]; 24 h): partially reversed

Oc1ccc(/C=C/c2cc(O)cc(O)c2)cc1 [Resveratrol, 3,5,4′-trihydroxystilbene]
intracellular NAD+ versus control levels ([1]; resveratrol 100 μM, 24 hour): significantly increased | increase in intracellular NAD+ concentration ([1]; resveratrol 100 μM, 24 hour, cells not subject to oxidative stress): approximately 75% | intracellular NAD+ after oxidative (H2O2) insult [2]: did not show a significant change | apparent antioxidant activity (H2O2-mediated NAD+ depletion) ([2]; resveratrol 100 μM 24 hour, then H2O2 20 minutes): small reduction in NAD^+ depletion | increase of NMNAT activity compared to control ([9]; 200 μM resveratrol, whole cell homogenates): 67% | increase of NMNAT activity in the whole cell extract ([9]; presence of resveratrol (FIG. 16)): approximately 70% | Minimum effective concentrations (MEC) [8]: 50 µM | amount of dsDNA breaks ([4]; 24 hr after UVB exposure): significantly reduced | EC100 [4]: 100 µM | amount of dsDNA breaks ([5]; 24 hr after UVB exposure): significantly reduced | EC100 [5]: 100 µM | decrease of Km [10]: approximately 3 times
